Where “and” joins values, the source holds several entries; their conditions need not be identical. Identical values can stand only once.
Tested on: HUVEC/MSC spheroids viability
Assay: Human HUVEC/MSC cell line growth inhibition [KRAS2];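 for viability, T/C: percent of DMSO vehicle control luminescence so 100% = untreated viability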
Conditions: for viability, T/C: stronger effect = lower value
Description: Multicellular complex tumor spheroid response to RAS pathway inhibitors in combination with a targeted agents in patient-derived cell lines with oncogenic KRAS variants from multiple cancer types
A high-throughput screen of multi-cell type tumor spheroids was designed to identify active combinations of targeted small molecules and KRAS pathway inhibitors. Complex spheroids include a stromal component modeled by human endothelial cells (HUVEC) and fibroblasts modeled by human mesenchymal stem cells (MSCs). The concentration ranges selected for each drug and investigational agent were based upon clinically achievable concentrations if the clinical Cmax of the agent was known. * [This particular assayID is a followup dataset requested by reviewers of the manuscript. It is a test of the HUVEC and MSC without the tumor cells, and was conducted using different drug plates and a different plate layout.]
Compounds. The drugs and investigational agents: BI-3406 (NSC825286), BAY-293 (NSC824723), batoprotafib (TNO155; NSC825523), sotorasib (AMG 510; NSC818433), MRTX1257 (NSC819558), elimusertib (BAY 1895344; NSC800525), molibresib (GSK525762; NSC774829), temuterkib (LY3214996; NSC803410), venetoclax (NSC766270), alisertib (NSC759677), olaparib (NSC753686), talazoparib (NSC767125), erdafitinib (NSC781556), ipatasertib (NSC767898), cabozantinib (NSC761068), nintedanib (NSC756659), abemaciclib (NSC768073), docetaxel (NSC628503), trametinib (NSC758246), and sapanisertib (NSC764658) were obtained from the National Cancer Institute (NCI) Developmental Therapeutics Program Chemical Repository. The FDA-approved anticancer drug set is available from the Developmental Therapeutics Program. […] The stock solutions were prepared in dimethyl sulfoxide (DMSO, Sigma-Aldrich, St. Louis, MO, cat. D2650) at 800-fold the tested concentration and stored at -70 degrees C prior to their use. All drugs and investigational agents were tested over a range starting from a high concentration at or near the clinical Cmax and decreasing in half-log increments. If the clinical Cmax for an agent had not been determined, the highest concentration tested was 10 microM.
Cell Culture. All cells were maintained in an incubator at 37 degrees C and 5% CO2 with 95% humidity. The PDC lines were cultured according to standard operating procedures established by the NCI PDMR (https://pdmr.cancer.gov/sops/default.htm). Briefly, all PDCs were thawed and cultured in Matrigel-coated flasks prepared with a working solution of 1X Ham's F-12 nutrient mix, without supplementation (Invitrogen, Waltham, MA, cat. 11765054), 100 U/mL penicillin-streptomycin (Invitrogen, cat. 15140122), and 2.5% Matrigel (Corning Inc., Corning, NY, cat. 354248) for the first three passages. All PDCs were cultured in complete DMEM/F-12 media containing advanced DMEM/F-12 (Invitrogen, cat. 12634028), 4.9% defined fetal bovine serum, heat inactivated (HyClone Laboratories Inc., Logan, UT, cat. SH30070.03HI), 389 ng/mL hydrocortisone (Sigma-Aldrich, cat. H4001), 9.7 ng/mL human EGF recombinant protein (Invitrogen, cat. PHG0313), 23.4 microg/mL adenine (Sigma-Aldrich, cat. A2786), 97.3 U/mL penicillin-streptomycin (Invitrogen, cat. 15140122), 1.9 mM L-glutamine (Invitrogen, cat. 25030081), and 9.7 microM Y-27632 dihydrochloride (Tocris Bioscience, Bristol, United Kingdom, cat. 1254). The PDCs were cultured in complete DMEM/F12 media without 9.7 microM Y-27632 dihydrochloride for at least two passages prior to the screen. The established cell line HOP-62 was cultured in RPMI 1640 medium, HEPES (Invitrogen, cat. 22400105) with 10% defined fetal bovine serum (HyClone Laboratories Inc., cat. SH30070.03) and 2 mM L-glutamine (Invitrogen, cat. 25030081). The pooled donor HUVEC were cultured in endothelial cell growth medium 2 (PromoCell, Heidelberg, Germany, cat. C-22011) and the hMSC were cultured in mesenchymal stem cell growth medium 2 (PromoCell, cat. C-28009). […]

[1] = compound alone, run of 05/05/2024

Row | Compound | viability, T/C (compound 0.0316 µM) | viability, T/C (compound 10 µM) | IC50 (curve of compound) | viability, T/C (compound 0.316 µM) | viability, T/C (compound 1 µM) | viability, T/C (compound 0.1 µM) | further results
1 | C=CC(=O)N1CCN(c2nc(=O)n(-c3c(C)ccnc3C(C)C)c3nc(-c4c(O)cccc4F)c(F)cc23)C(C)C1 (stereo not drawn) | 99.5% [middle of 9 runs] | 117% [middle of 9 runs] | – | – | – | – | IC50 [1]: > 10 µM
2 | C=CC(=O)N1CCN(c2nc(OCC3CCCN3C)nc3c2CCN(c2cccc4cccc(C)c24)C3)CC1CC#N (stereo not drawn) | – | – | – | – | – | – | viability, T/C (compound 0.03 µM): 94.9% [middle of 9 runs]; viability, T/C (compound 0.949 µM): 73.6% [middle of 9 runs]; viability, T/C (compound 3 µM): 80.8% [middle of 9 runs]; IC50 [1]: > 3 µM
3 | CC(=O)Nc1cccc(-n2c(=O)n(C3CC3)c(=O)c3c(Nc4ccc(I)cc4F)n(C)c(=O)c(C)c32)c1 | – | – | 14.7 nM [middle of 5 runs] | – | – | – | viability, T/C (compound 94.9 pM): 110% [middle of 5 runs]; viability, T/C (compound 0.000949 µM): 118% [middle of 5 runs]; viability, T/C (compound 0.00949 µM): 71.8% [middle of 5 runs]; viability, T/C (compound 0.03 µM): 17.6% [middle of 5 runs]
4 | CC(=O)OC12COC1CC(O)C1(C)C(=O)C(O)C3=C(C)C(OC(=O)C(O)C(NC(=O)OC(C)(C)C)c4ccccc4)CC(O)(C(OC(=O)c4ccccc4)C21)C3(C)C (stereo not drawn) | – | – | < 0.00949 µM | – | – | – | viability, T/C (compound 0.00949 µM): 45.1% [middle of 5 runs]; viability, T/C (compound 0.03 µM): 44.2% [middle of 5 runs]; viability, T/C (compound 0.0949 µM): 47.2% [middle of 5 runs]; viability, T/C (compound 0.3 µM): 47.1% [middle of 4 runs]; viability, T/C (compound 0.949 µM): 47.9% [middle of 5 runs]; viability, T/C (compound 3 µM): 58.1% [middle of 5 runs]
5 | CC(C)NCC(C(=O)N1CCN(c2ncnc3c2C(C)CC3O)CC1)c1ccc(Cl)cc1 (stereo not drawn) | – | 51.3% [middle of 5 runs] | > 10 µM and 2.61 µM and 9.3 µM | 83.5% [middle of 5 runs] | 71.7% [middle of 5 runs] | – | –
6 | CC(C)n1nc(-c2ccc3oc(N)nc3c2)c2c(N)ncnc21 | 47.5% [middle of 5 runs] | – | – | – | – | 43.9% [middle of 5 runs] | viability, T/C (compound 0.001 µM): 68.3% [middle of 5 runs]; viability, T/C (compound 0.00316 µM): 51.2% [middle of 5 runs]; viability, T/C (compound 0.01 µM): 47.9% [middle of 5 runs]
7 | CC1(C)CCC(CN2CCN(c3ccc(C(=O)NS(=O)(=O)c4ccc(NCC5CCOCC5)c([N+](=O)[O-])c4)c(Oc4cnc5[nH]ccc5c4)c3)CC2)=C(c2ccc(Cl)cc2)C1 | 90.6% [middle of 5 runs] | 4.4% [middle of 5 runs] | 4.56 µM [middle of 4 runs] | 83% [middle of 5 runs] | 90.2% [middle of 5 runs] | 95.1% [middle of 5 runs] | viability, T/C (compound 3.16 µM): 69% [middle of 5 runs]
8 | CC1COCCN1c1cc(-c2ccnn2C)c2ccnc(-c3ccn[nH]3)c2n1 (stereo not drawn) | – | – | > 3 µM and 1.95 µM and 2.38 µM | – | – | – | viability, T/C (compound 0.03 µM): 80.5% [middle of 5 runs]; viability, T/C (compound 0.0949 µM): 87.6% [middle of 5 runs]; viability, T/C (compound 0.3 µM): 73.6% [middle of 5 runs]; viability, T/C (compound 0.949 µM): 56.7% [middle of 5 runs]; viability, T/C (compound 3 µM): 47.6% [middle of 5 runs]
9 | CC1OCC2(CCN(c3cnc(Sc4ccnc(N)c4Cl)c(N)n3)CC2)C1N (stereo not drawn) | – | – | > 10 µM | – | – | – | IC50 [1]: > 10 µM
10 | CCN1CCN(Cc2ccc(Nc3ncc(F)c(-c4cc(F)c5nc(C)n(C(C)C)c5c4)n3)nc2)CC1 | 87.7% [middle of 5 runs] | – | > 1 µM | 99.4% [middle of 5 runs] | – | 83.9% [middle of 5 runs] | viability, T/C (compound 0.01 µM): 86.6% [middle of 5 runs]
11 | CCNC(=O)CC1N=C(c2ccc(Cl)cc2)c2cc(OC)ccc2-n2c(C)nnc21 (stereo not drawn) | 87.2% [middle of 5 runs] | – | > 10 µM | – | – | 86.6% [middle of 5 runs] | –
12 | CN(C)C/C=C/C(=O)Nc1cc2c(Nc3ccc(F)c(Cl)c3)ncnc2cc1O[C@H]1CCOC1 | 85.3% [middle of 5 runs] | – | > 0.1 µM | – | – | – | viability, T/C (compound 0.000316 µM): 99.9% [middle of 5 runs]; viability, T/C (compound 0.001 µM): 91% [middle of 5 runs]; viability, T/C (compound 0.00316 µM): 90.5% [middle of 5 runs]
13 | CNCc1ccccc1-c1csc(C(C)Nc2nc(C)nc3cc(OC)c(OC)cc23)c1 (stereo not drawn) | 88.4% [middle of 9 runs] | 0.41% [middle of 8 runs] | – | 84.6% [middle of 9 runs] | – | – | IC50 [1]: 5.29 µM [middle of 8 runs]
14 | COC(=O)c1ccc2c(C(=Nc3ccc(N(C)C(=O)CN4CCN(C)CC4)cc3)c3ccccc3)c(O)[nH]c2c1 | – | 0.37% [middle of 5 runs] | 1.96 µM [middle of 5 runs] | – | 58.1% [middle of 5 runs] | – | viability, T/C (compound 3.16 µM): 39.6% [middle of 5 runs]
15 | COc1cc(Nc2ncc3c(n2)-c2ccc(Cl)cc2C(c2c(F)cccc2OC)=NC3)ccc1C(=O)O | – | 61.2% [middle of 5 runs] | > 10 µM | 96% [middle of 5 runs] | 94% [middle of 5 runs] | 90.3% [middle of 5 runs] | viability, T/C (compound 3.16 µM): 104% [middle of 5 runs]
16 | COc1cc(OC)cc(N(CCNC(C)C)c2ccc3ncc(-c4cnn(C)c4)nc3c2)c1 | 60.9% [middle of 5 runs] | 34.8% [middle of 5 runs] | 66.1 nM [middle of 5 runs] | 38.2% [middle of 5 runs] | 38.3% [middle of 5 runs] | 45.4% [middle of 5 runs] | viability, T/C (compound 3.16 µM): 41.8% [middle of 5 runs]
17 | COc1cc2nc(C)nc(NC(C)c3cc(N)cc(C(F)(F)F)c3)c2cc1OC1CCOC1 (stereo not drawn) | 99.5% [middle of 9 runs] | 66.7% [middle of 9 runs] | – | 97.3% [middle of 9 runs] | – | – | IC50 [1]: > 10 µM
18 | COc1cc2nccc(Oc3ccc(NC(=O)C4(C(=O)Nc5ccc(F)cc5)CC4)cc3)c2cc1OC | 76.8% [middle of 5 runs] | 36% [middle of 5 runs] | 6.87 µM [middle of 5 runs] | 70.8% [middle of 5 runs] | 71.4% [middle of 5 runs] | 79% [middle of 5 runs] | –
19 | Cn1nccc1Nc1nccc(-c2cc3c(s2)C(C)(C)N(CCN2CCOCC2)C3=O)n1 | 91.1% [middle of 5 runs] | 5.24% [middle of 5 runs] | 2.65 µM [middle of 5 runs] | – | 99.3% [middle of 5 runs] | 105% [middle of 5 runs] | viability, T/C (compound 3.16 µM): 40.5% [middle of 5 runs]
20 | Cn1ncnc1[C@H]1c2n[nH]c(=O)c3cc(F)cc(c23)N[C@@H]1c1ccc(F)cc1 | 88.1% [middle of 5 runs] | – | > 0.1 µM | – | – | 84.2% [middle of 5 runs] | viability, T/C (compound 0.001 µM): 87.9% [middle of 5 runs]; viability, T/C (compound 0.00316 µM): 83.8% [middle of 5 runs]; viability, T/C (compound 0.01 µM): 90.7% [middle of 5 runs]
21 | O=C(c1cc(Cc2n[nH]c(=O)c3ccccc23)ccc1F)N1CCN(C(=O)C2CC2)CC1 | – | 95.3% [middle of 5 runs] | > 10 µM | 90.8% [middle of 5 runs] | 89.3% [middle of 5 runs] | – | –
